According to US20240299321A1, “METHODS TO SENSITIZE CANCER CELLS AND STANDARDIZED SCREENING ASSAY FOR IMMUNOTHERAPY” (THE TRUSTEES OF INDIANA UNIVERSITY, priority 2020, published 2024):

Assays:
[1] = Organ damage in treated mice; type: in vivo
EO771 tumors [2] = test: EO771 orthotopic breast tumor model in immunodeficient nude (NU/J) mice; type: in vivo; settings: for tumor growth and weight: immune-deficient nude mice, 20 mg kg-1, vs control group; for size of gross dissected mammary EO771 tumors: nude mice, 20 mg kg−1, harvested day 18
Protocol: (§1) Animal studies: All animal experiments were performed in accordance with the National Institutes of Health's Animal Use Guidelines and protocols approved by the Animal Care and Use Committee of Indiana University School of Medicine. […] Each mouse was injected with a total of 2×10^5 tumor cells. 5 mice were used in each group. Tumors were measured in two dimensions using a manual caliper. Tumor volume was calculated using the following formula: V=0.5×length×width×width. Tumor volume was measured every 3 days. Tumors were harvested 22 days after injection. The tumor growth, volume and weight were analyzed. To evaluate the anti-tumor effect of drugs in immunocompetent C57BL/6 mice and immunodeficient nude (NU/J) mice, 2×10^5 EO771 cells were orthotopically injected into fat pad of the 4th mammary gland in female mice. […] For CD4/CD8 depletion experiment, the tumor-bearing mice were randomly divided into 7 groups (n=8 mice/group) including isotype control (rat IgG2a, Bioxcell), isotype control+CUDC-101, isotype control+BML-210, anti-CD8 (Clone: 53-6.72, Bioxcell)+CUDC-101, anti-CD8+BML-210, anti-CD4 (Clone: GK1.5, Bioxcell)+CUDC-101, or anti-CD4+BML-210. Intraperitoneal injection of inhibitors (20 mg kg-1) and anti-CD4/CD8 (10 mg kg-1) were administrated to the mice by 3 times/week for 2 weeks. The tumors were harvested at day 18 (NU/J mice) or day 28 (C57BL/6 mice) for further analyses. In immune checkpoint blockade experiment, 2×10^5 EO771 cells were orthotopically injected into fat pad of the 4th mammary gland in female C57BL/6 mice. From day 10, the tumor-bearing mice were randomly divided into each treatment group (n=8 mice/group), and the mice were treated with IgG2a isotype control antibody (clone 2A3, Bioxcell), BML-210 (20 mg kg-1), anti-PD-1 (200 μg/mouse, Bioxcell), or BML-210 and anti-PD-1 combo. The treatment was done 3 times/week for 2 weeks. Tumors were harvested at day 26 post injection and the tumors were analyzed by IHC staining, flow cytometry, ELISA or CyTOF assay.

EO771 tumors [3] = test: CyTOF immune profile of EO771 tumors; type: in vivo, C57BL/6 mice
Protocol: as §1, with “assay. Mass Cytometry (CyTOF): EO771 tumors in C57BL/6 mice were harvested and dissociated into single cells. 1×10^6 single cells from each sample were suspended in ice-cold buffer (PBS with 0.5% BSA and 0.02% Azide). The antibody panel (Table 1) was used for sample staining. Samples were analyzed using the CyTOF 2 Mass Cytometer (Fluidigm). All the samples were done on bead-based normalization before analysis on Cytobank. CyTOF data were analyzed using viSNE analysis64 in the Cytobank platform. The viSNE analysis uses the Barnes-Hut implementation of the t-Distributed Stochastic Neighbor embedding (tSNE) algorithm. The cell populations were visualized on viSNE as an overlay plot.” for “assay.”

mouse melanoma model = settings: reported; cited from earlier work

| Compound | visible damages in the heart, kidney, spleen, liver and lung [1] | tumor growth and weight (EO771 tumors [2]) | size of gross dissected mammary EO771 tumors (EO771 tumors [2]) | infiltration of PMN-MDSCs (EO771 tumors [3]; CD11b+Ly6G+Ly6ClowF4/80−) | Mo-MDSCs (EO771 tumors [3]; CD11b+Ly6G-Ly6C+F4/80−) | tumor-associated macrophage (TAM M1 and TAM M2) populations (EO771 tumors [3]; mouse, in vivo) | infiltration of immune lymphocytes, particularly CD8+ T effector cells and NK cells (EO771 tumors [3]; tumors 26 days post implantation) | CD8+ T cell infiltration and anti-tumor response (mouse melanoma model) |
| --- | --- | --- | --- | --- | --- | --- | --- | --- |
| Nc1ccccc1NC(=O)CCCCCCC(=O)Nc1ccccc1 [BML-210] | No visible damages | No significant differences | no significant difference in size | decreased infiltration | increased | No significant differences | notably enhanced infiltration | – |
| C#Cc1cccc(Nc2ncnc3cc(OC)c(OCCCCCCC(=O)NO)cc23)c1 [CUDC-101] | No visible damages | No significant differences | no significant difference in size | – | – | – | – | – |
| c1ccc([C@@H]2C[C@H]2NC2CCNCC2)cc1 [GSK-LSD1] | – | – | – | – | – | – | – | promote CD8+ T cell infiltration and anti-tumor response |
